The source of these data is publication PMC11855827, “High-Throughput Screening of Five Compound Libraries for Anthelmintic Activity and Toxicity Leads to the Discovery of Two Flavonoid Compounds” (International Journal of Molecular Sciences, 2025).

Like-named read-outs stand apart in the source and are kept apart here.

The term inhibition denotes the share of the control response that was lost under treatment.

The test has as its system C. elegans. Kind of test: microbe, parasite or virus in culture. The conditions noted are these: Caenorhabditis elegans.
Where [1] appears, read: 0 h, read-out: Percentage of motility inhibition 0 h, Table S2, C. elegans SS assay, 110 μM, 0 h, averages of 4 data points.
The mark [2] stands for this setting: 24 h, read-out: Percentage of motility inhibition 24 h, Table S2, C. elegans SS assay, 110 μM, 24 h, averages of 4 data points.
The mark [3] stands for this setting: 0 h, read-out: Percentage of motility inhibition 0 h.
Setting [4] is: 24 h, read-out: Percentage of motility inhibition 24 h.

`CC(=O)OCC(CCn1cnc2cnc(N)nc21)COC(C)=O` [Famciclovir]: the inhibition at 110 µM stood at 15% under setting [1] and 2% under setting [2].
The matching figures for `COc1ccc2cc1Oc1ccc(cc1)C[C@H]1c3cc(c(OC)cc3CCN1C)Oc1c(O)c(OC)cc3c1[C@H](C2)N(C)CC3` [Fangchinoline]: 0% and 0%.
Consider `Cc1oc(=O)oc1COC(=O)C1=C([C@H]2CCCO2)S[C@@H]2[C@@H]([C@@H](C)O)C(=O)N12` [Faropenem daloxate], for which the inhibition at 110 µM turned out to be 5% under setting [1] and 17% under setting [2].
As for `Cc1c(O)c(C)c2c(c1O)C(=O)C[C@@H](c1ccc(O)cc1)O2` [Farrerol], the inhibition at 110 µM runs as follows: under setting [3], 6%; under setting [4], 9%.
Take `O=C(C[C@H]1NCCC[C@@H]1O)Cn1cnc2ccccc2c1=O` [Febrifugine]: the inhibition at 110 µM stood at 0% under setting [1] and 0% under setting [2].
Regarding `COC(=O)Nc1nc2ccc(Sc3ccccc3)cc2[nH]1` [Fenbendazole], the inhibition at 110 µM was found to be 8% under setting [1] and 14% under setting [2].
On to `CC12CCC(C1)C(C)(C)C2O` (stereo not shown) [Fenchyl alcohol], for which the inhibition at 110 µM is, setting by setting: under setting [1], 2%; under setting [2], 0%.
The matching figures for `CSc1ccc(OCc2ncc([N+](=O)[O-])n2C)cc1` [Fexinidazole]: 11% and 29%.
As to `O=c1c(O)c(-c2ccc(O)c(O)c2)oc2cc(O)ccc12` [Fisetin], the inhibition at 110 µM runs as follows: under setting [1], 0%; under setting [2], 2%.
The matching figures for `COc1cc(O)c(C(=O)/C=C/c2ccc(O)cc2)c(OC)c1` [Flavokawain C]: 18% and 20%.
The corresponding values for `O=c1cc(-c2ccccc2)oc2ccccc12` [Flavone] are 0% and 5%.
The matching figures for `O=c1c(O)c(-c2ccccc2)oc2ccccc12` [Flavonol]: 2% and 10%.
As to `CCC(=O)c1c(O)cc(O)cc1O` [Flopropione], the inhibition at 110 µM reads like this: under setting [1], 40%; under setting [2], 18%.
The matching figures for `CS(=O)(=O)c1ccc([C@@H](O)[C@@H](CF)NC(=O)C(Cl)Cl)cc1` [Florfenicol]: 29% and 9%.
The corresponding values for `OC(Cn1cncn1)(Cn1cncn1)c1ccc(F)cc1F` [Fluconazole] are 7% and 12%.
The corresponding values for `Nc1[nH]c(=O)ncc1F` [Flucytosine] are 23% and 32%.
Turning to `CC1CCc2cc(F)cc3c(=O)c(C(=O)O)cn1c23` (stereo not shown) [Flumequine], the inhibition at 110 µM came to 20% under setting [1] and 21% under setting [2].
The corresponding values for `Nc1nc(=O)c2nc(CNc3ccc(C(=O)N[C@@H](CCC(=O)O)C(=O)O)cc3)cnc2[nH]1` [Folic acid] are 23% and 17%.
The matching figures for `COc1ccc(-c2coc3cc(O)ccc3c2=O)cc1` [Formononetin]: 6% and 31%.
The corresponding values for `C=C[C@@]1(C)CC(=O)[C@]2(O)[C@@]3(C)[C@@H](O)CCC(C)(C)[C@@H]3[C@H](O)[C@H](OC(C)=O)[C@@]2(C)O1` [Forskolin] are 0% and 2%.
Regarding `O=P(O)(O)OC(Cn1cncn1)(Cn1cncn1)c1ccc(F)cc1F` [Fosfluconazole], the inhibition at 110 µM reads like this: under setting [1], 17%; under setting [2], 0%.
`CC1=C2C(=O)O[C@@H](c3ccoc3)[C@]2(C)CCC1` [Fraxinellone]: the inhibition at 110 µM under setting [1] worked out at 0% and the inhibition at 110 µM under setting [2] was 6%.
The corresponding values for `O=C(CO)[C@@H](O)[C@H](O)[C@H](O)CO` [Fructose] are 0% and 3%.
The matching figures for `Cc1cccc(C)c1NC(=O)c1ccccc1C(=O)O` [Ftaxilide]: 18% and 10%.
As for `O=C(O)/C=C/C(=O)O` [Fumaric acid], the inhibition at 110 µM under setting [1] is 8% and the inhibition at 110 µM under setting [2] came out at 5%.
Turning to `O=C1CN(/N=C/C=C/c2ccc([N+](=O)[O-])o2)C(=O)N1` [Furagin], the inhibition at 110 µM stood at 6% under setting [1] and 0% under setting [2].
The corresponding values for `O=C1OCCN1/N=C/c1ccc([N+](=O)[O-])o1` [Furazolidone] are 21% and 7%.
In the case of `CC(=O)O[C@H]1C[C@@]2(C)[C@@H](C[C@@H](O)[C@H]3[C@@]4(C)CC[C@@H](O)[C@@H](C)[C@@H]4CC[C@@]32C)/C1=C(\CCC=C(C)C)C(=O)O` [Fusidic acid], the inhibition at 110 µM reads like this: under setting [1], 0%; under setting [2], 1%.
`CC(C)OC(=O)[C@H](C)N[P@](=O)(CO[C@H](C)Cn1cnc2c(N)ncnc21)Oc1ccccc1` [GS‐7340]: the inhibition at 110 µM was 11% under setting [3] and 1% under setting [4].
Consider `O=c1c(O)c(-c2ccccc2)oc2cc(O)cc(O)c12` [Galangin], for which the inhibition at 110 µM came out at 10% under setting [1] and 8% under setting [2].
The corresponding values for `O=C(O)c1cc(O)c(O)c(O)c1` [Gallic acid] are 66% and 34%.
The corresponding values for `CC(C)=CCC/C(C)=C/Cc1c(O)c(CC=C(C)C)c2c(c1O)C(=O)C1=C[C@@H]3C[C@H]4C(C)(C)O[C@@](C/C=C(/C)C(=O)O)(C3=O)[C@@]14O2` [Gambogenic acid] are 1% and 8%.
With `Nc1nc(O)c2ncn(COC(CO)CO)c2n1` [Ganciclovir], the inhibition at 110 µM runs as follows: under setting [1], 22%; under setting [2], 5%.
As to `C/C(C=O)=C\CC[C@@H](C)[C@H]1CC[C@@]2(C)C3=CC[C@H]4C(C)(C)C(=O)CC[C@]4(C)C3=CC[C@]12C` [Ganoderal A], the inhibition at 110 µM by setting is: under setting [1], 7%; under setting [2], 25%.
The matching figures for `C/C(=C\C(=O)CC(C)C(=O)O)[C@H]1C[C@H](O)[C@@]2(C)C3=C(C(=O)C[C@]12C)[C@@]1(C)CCC(=O)C(C)(C)[C@@H]1C[C@@H]3O` (stereo partly shown) [Ganoderenic acid A]: 0% and 0%.
The corresponding values for `C/C(=C\C(=O)CC(C)C(=O)O)[C@H]1CC(=O)[C@@]2(C)C3=C(C(=O)C[C@]12C)[C@@]1(C)CC[C@H](O)C(C)(C)[C@@H]1C[C@@H]3O` (stereo partly shown) [Ganoderenic acid B] are 0% and 42%.
The matching figures for `C[C@H](CC(=O)C[C@@H](C)[C@H]1C[C@H](O)[C@@]2(C)C3=C(C(=O)C[C@]12C)[C@@]1(C)CCC(=O)C(C)(C)[C@@H]1C[C@@H]3O)C(=O)O` [Ganoderic acid A]: 15% and 6%.
Regarding `CC(CC(=O)C[C@@H](C)[C@H]1CC(=O)[C@@]2(C)C3=C(C(=O)C[C@]12C)[C@@]1(C)CC[C@H](O)C(C)(C)[C@@H]1C[C@@H]3O)C(=O)O` (stereo partly shown) [Ganoderic acid B], the inhibition at 110 µM reads like this: under setting [1], 0%; under setting [2], 20%.
